From patent US20230233569A1 (Revolution Medicines, Inc., priority 2020, published 2023)
pIC50: −log10 of the molar value.

What was measured:
[1] = test system: NCI-H358 (K-Ras G12C); test: CellTiter-Glo cell viability assay, 5-day treatment; assay type: cell-based; conditions: Homo sapiens, NCI-H358, H358, K-Ras G12C; read-out: Additional H358 Cell Viability assay data (K-Ras G12C, IC50)
Procedure, shortened: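 Seeded cells received test compound by direct dispensing. On day 5 the plates sat at room temperature approximately 30 minutes, then luminescence was measured. Data were normalized to DMSO and curve-fitted with four parameters.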

[2] = biological target: KRAS Q61H (Homo sapiens, UniProt P01116+P62937, Q61H); test: Disruption of BRAF RBD interaction with Ras (FRET / MOA assay, with Cyclophilin A); assay type: biochemical; conditions: KRAS Q61H; read-out: KRAS Q61H FRET data IC50
KRAS Q61H, sequence (P01116 1-169 isoform P01116-2 Q61H limits assumed): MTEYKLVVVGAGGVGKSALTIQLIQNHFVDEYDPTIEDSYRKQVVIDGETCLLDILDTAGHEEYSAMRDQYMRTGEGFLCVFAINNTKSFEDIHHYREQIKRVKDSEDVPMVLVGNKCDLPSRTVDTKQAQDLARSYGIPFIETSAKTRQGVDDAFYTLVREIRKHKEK
KRAS Q61H, sequence (P62937 whole entry): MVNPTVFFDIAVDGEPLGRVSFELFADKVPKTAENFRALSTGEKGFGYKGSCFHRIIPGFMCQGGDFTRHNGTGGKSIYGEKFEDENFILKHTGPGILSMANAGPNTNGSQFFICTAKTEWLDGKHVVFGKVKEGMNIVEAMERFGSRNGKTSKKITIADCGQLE
Procedure, shortened: (§1)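 TR-FRET in 25 mM HEPES pH 7.3, 100 mM NaCl, 5 mM MgCl2, 0.1% BSA: 25 μM Cyclophilin A, 12.5 nM His6-Ras-GMPPNP, 50 nM GST-BRAF RBD with compound (10-point 3-fold series from 30 μM), 3 h at 25° C. Anti-His Eu/anti-GST APC added, 1.5 h more; IC50 from decreased FRET ratio versus DMSO.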

[3] = biological target: NRAS Q61K (Homo sapiens, UniProt P01111+P62937, Q61K); test: as above; assay type: biochemical; conditions: NRAS Q61K; read-out: NRAS Q61K FRET data IC50
NRAS Q61K, sequence (P01111 whole entry Q61K): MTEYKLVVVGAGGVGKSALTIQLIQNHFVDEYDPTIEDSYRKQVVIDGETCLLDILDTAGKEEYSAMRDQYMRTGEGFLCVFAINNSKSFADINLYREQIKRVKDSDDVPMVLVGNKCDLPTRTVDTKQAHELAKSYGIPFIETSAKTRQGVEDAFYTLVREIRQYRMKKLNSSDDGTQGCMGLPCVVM
NRAS Q61K, sequence (P62937 whole entry): as the sequence (P62937 whole entry) above
Procedure, shortened: as §1

[4] = biological target: NRAS Q61R (Homo sapiens, UniProt P01111+P62937, Q61R); test: as above; assay type: biochemical; conditions: NRAS Q61R; read-out: NRAS Q61R FRET data IC50
NRAS Q61R, sequence (P01111 whole entry Q61R): as the sequence (P01111 whole entry Q61K) above, with K61R counted along it
NRAS Q61R, sequence (P62937 whole entry): as the sequence (P62937 whole entry) above
Procedure, shortened: as §1

Row | SMILES | pIC50 [1] | pIC50 [2] | pIC50 [3] | pIC50 [4]
1 | CCn1c(-c2cccnc2[C@H](C)OC)c2c3cc(ccc31)-c1csc(n1)C[C@H](NC(=O)[C@H](C(C)C)N(C)C(=O)N(C)C1CN(C(=O)/C=C/C(C)(C)O)C1)C(=O)N1CCC[C@H](N1)C(=O)OCC(C)(C)C2 (atropisomer, axis not shown) [Example A350] | 6.00 to 7.00 | 7.00 to 8.00 | 7.00 to 8.00 | 6.00 to 7.00
2 | C=CC(=O)N1CC[C@H](C(=O)N(C)[C@H](C(=O)N[C@H]2Cc3cc(O)cc(c3)-c3cnc4c(c3)c(c(-c3ccccc3CCOC)n4CC)CC(C)(C)COC(=O)[C@@H]3CCCN(N3)C2=O)C(C)C)C1 [Example A210] |  | 5.00 to 6.00 | 5.00 to 6.00 | < 5.00
3 | CCn1c(-c2cccnc2[C@H](C)OC)c2c3cc(ccc31)-c1cccc(c1)C[C@H](NC(=O)[C@H](C(C)C)N1CC[C@]3(CCN(C(=O)C#C[C@]4(N(C)C)CCOC4)C3)C1=O)C(=O)N1CCC[C@H](N1)C(=O)OCC(C)(C)C2 [Example A559] | > 8.00 | 6.00 to 7.00 | 5.00 to 6.00 | 5.00 to 6.00
4 | C=CC(=O)N1CC[C@H](C(=O)N(C)[C@H](C(=O)N[C@H]2Cc3cc(O)cc(c3)-c3ccc4c(c3)c(c(-c3cccnc3)n4C3CC3)CC(C)(C)COC(=O)[C@@H]3CCCN(N3)C2=O)C(C)C)C1 [Example A160] | 6.00 to 7.00 | 5.00 to 6.00 | < 5.00 | < 5.00
5 | C=CC(=O)N1CCC2(C1)CN(C(=O)N(C)[C@H](C(=O)N[C@H]1Cc3nc(cs3)-c3ccc4c(c3)c(c(-c3cccnc3[C@H](C)OC)n4CC(F)(F)F)CC(C)(C)COC(=O)C3CCCN(N3)C1=O)C(C)C)C2 (some centres unmarked) [Example A603] | 7.00 to 8.00 | 7.00 to 8.00 | 7.00 to 8.00 | 7.00 to 8.00
6 | C=CC(=O)N1CC[C@H](C(=O)N(C)[C@H](C(=O)N[C@H]2Cc3nsc(n3)-c3ccc4c(c3)c(c(-c3cccnc3[C@H](C)OC)n4CC)CC(C)(C)COC(=O)[C@@H]3CCCN(N3)C2=O)C(C)C)C1 (atropisomer, axis not shown) [Example A694] | 7.00 to 8.00 | 6.00 to 7.00 | 6.00 to 7.00 | 5.00 to 6.00
7 | C=CC(=O)N1CCOC2(CCN(C(=O)N(C)[C@H](C(=O)N[C@H]3Cc4nc(n(C)n4)-c4ccc5c(c4)c(c(-c4cccnc4[C@H](C)OC)n5CC(F)(F)F)CC(C)(C)COC(=O)C4CCCN(N4)C3=O)C(C)C)CC2)C1 (some centres unmarked) [Example A606] | 6.00 to 7.00 | 7.00 to 8.00 | 6.00 to 7.00 | 6.00 to 7.00
8 | CCn1c(-c2cccnc2[C@H](C)OC)c2c3cc(ccc31)-c1cccc(c1)C[C@H](NC(=O)[C@@H](COC1CN(C(=O)C#C[C@@H]3COCCN3C)C1)C(C)C)C(=O)N1CCC[C@H](N1)C(=O)OCC(C)(C)C2 (atropisomer, axis not shown) [Example A648] | 7.00 to 8.00 | < 5.00 | < 5.00 | < 5.00
9 | C=CC(=O)N1CC(OC[C@H](C(=O)N[C@H]2Cc3cc(F)cc(c3)-c3ccc4c(c3)c(c(-c3cccnc3[C@H](C)OC)n4CC)CC(C)(C)COC(=O)[C@@H]3CCCN(N3)C2=O)C(C)C)C1 (atropisomer, axis not shown) [Example A725] | 7.00 to 8.00 | 6.00 to 7.00 | 5.00 to 6.00 | 5.00 to 6.00
10 | CCn1c(-c2cccnc2[C@H](C)OC)c2c3cc(ccc31)N1CCO[C@@H](C[C@H](NC(=O)[C@H](C(C)C)N(C)C(=O)[C@@]3(F)CCN(C(=O)C#CC(C)(C)N4CCC4)C3)C(=O)N3CCC[C@H](N3)C(=O)OCC(C)(C)C2)C1 [Example A726] | > 8.00 |  | < 5.00 | < 5.00
11 | CO[C@@H](COC1CN(C(=O)C#CC(C)(C)N(C)C)C1)C(=O)N[C@H]1Cc2cccc(c2)-c2ccc3c(c2)c(c(-c2cccnc2[C@H](C)OC)n3CC(F)(F)F)CC(C)(C)COC(=O)[C@@H]2CCCN(N2)C1=O [Example A556] | > 8.00 |  | < 5.00 | < 5.00
